{"source": "patent US20210340130A1", "about": "“Compositions and methods for treating attention deficit disorders” (priority 2016, published 2021)", "key": {"Mouse (CD1)": {"test_system": "Mouse (CD1)", "experiment": "Amphetamine-stimulated locomotion in mice", "type": "in vivo", "details": "for Minimum Effective Dose: IP, dose range 5.6-30 mg/kg; for amphetamine-stimulated locomotion, pre-treatment: amphetamine 2 mg/kg i.p.", "description": "(§1) Effects of exemplary low impact ampakines were also evaluated in mice for the ability to inhibit amphetamine-stimulated locomotor activity. Mice were placed in the locomotor chamber for 20 min to habituate, removed, injected with either vehicle or anti-ADHD ampakine (CX717), and 5 min later injected with 2 mg/kg i.p. Amphetamine. Mice were returned to the locomotor chamber 10 min later, and their activity measured for a further 15 min. In related studies, adult male CD1 mice or male Sprague-Dawley rats were acclimated in a test chamber for 20 minutes removed and dosed i.p. (mice) or orally (rats) with CX1739, vehicle, or a reference compound. Five (mice) or 10 (rats) were then injected with amphetamine (2 mg/kg, i.p.) or saline vehicle and were returned to the activity test chamber."}, "Rat (Wistar)": {"test_system": "Rat (Wistar)", "experiment": "Novel object recognition memory", "type": "in vivo", "details": "for Minimum Effective Dose: IP", "description": "Additional Novel Object Recognition behavioral model studies were conducted to further elucidate the anti-ADHD activities of CX717 and CX1739. Rats were habituated to a test box for two 5 minute sessions on consecutive days. Each test session consisted of two phases: in the first phase (“sample period”), two identical objects (A1 and A2) were placed in the far corners of the box, and the rats were allowed to explore the objects. After a 24 hour delay, rats were re-introduced to the arena (“test period”) now containing a third identical copy of the familiar object (A3) and a new object (B), placed in the same locations as in the first phase, and the total time spent exploring each of the objects was determined over a 3-min duration. For CX717 drug treatment, rats were dosed 30 min prior to each sample session with either 0.1, 0.3, 1.0 mg/kg CX717 (p.o.); vehicle (0.5% methylcellulose, p.o.) or 0.9 mg/kg Aricept (E2020, i.p.). The exploration times for the full 3-min were calculated and expressed as the discrimination index, d1, defined as the absolute difference in time spent exploring the novel object minus the familiar object.\nFor CX1739 Male Wistar rats were assessed for cognitive ability in a test apparatus comprising an open-field arena placed in a sound-attenuated room under dimmed lighting. Rat exploration and activity were captured by a digital camera, and viewed on a monitor in an adjoining area. Following a 5-minute habituation period, each animal was placed in the test arena in the presence of two identical objects (plastic shapes) and the time spent actively exploring the objects during a 5-minute test period (T1) was recorded. After 24 hours, each rat was again placed in the test arena for 5 minutes (T2) in the presence of one familiar object and one novel object, and the time spent exploring both objects was recorded. The Recognition Index was calculated as the percentage of total exploration time spent exploring the novel object during the retention session (T2), which provides the primary measure of cognitive function in this assay.\nThe Novel object recognition (NOR) paradigm is a rodent model of recognition learning memory retrieval and takes advantage of the spontaneous behavior of rodents to investigate a novel object compared with a familiar object. NOR has been employed extensively to indicate cognition-enhancing properties of drug candidates, predictive of therapeutic efficacy of positively-assaying drugs for reducing ADHD symptoms in humans."}, "[1]": {"test_system": "hippocampal LTP (hilus of the dentate gyrus)", "experiment": "Effect on induction of LTP in rat hippocampus (anesthetized rat, in vivo)", "set-up": "species or system Rat (Long Evans)", "details": "for Minimum Effective Dose: IP"}, "Rat (SD) [2]": {"test_system": "Rat (SD)", "experiment": "Radial arm maze - spatial memory", "type": "in vivo", "details": "for Minimum Effective Dose: IP", "description": "Yet another animal model for evaluating ampakine drug activity employed herein is the well known and widely accepted Radial Arm Maze model. CX717 was tested for its ability to improve the performance of aged rats in an eight-arm radial maze using a cross-over design study. This behavioral test uses a standard eight-arm radial maze wherein five arms were open and baited with food pellets for the first morning session. Each animal was allowed to consume the food rewards present in the open arms and was then returned to its home cage. Six hours later animals were returned to the maze, wherein all eight-arms were open, but only the three arms previously closed contained food rewards. Scoring was based on the number of correct choices before an incorrect choice (re-entering an arm that was visited during the morning acquisition session) was made and on the total number of incorrect choices made before all three of the still baited arms were visited. CX717 was tested at six doses (0.03, 0.1, 0.3, 1, 3 and 10 mg/kg in hydroxypropyl β-cyclodextran, i.p.), administered 30 min prior to the start of the morning acquisition session and no drug was given prior to the second trial six hours later.\nFor CX1739 male Sprague-Dawley rats were trained to perform the win shift assay on the radial arm maze for approximately 10 weeks prior to the study. On each day of training and testing, each rat completed one trial, split into a sample phase and a test phase. During the sample phase, the rat was placed on a 12-arm radial arm maze surrounded by visual cues. Food wells at the end of each arm were baited with sucrose pellets but access to three arms, selected randomly, was blocked with a clear plastic divider at the arm entrance. The rat was allowed 5 minutes to search the maze and collect the available food pellets before being removed from the maze. Fifteen minutes later the rat was returned to the maze for the test phase of the trial. During the test phase, the rat was allowed access to all 12 arms of the maze but only the arms that had been blocked previously were baited with sucrose pellets. The rat was allowed 3 minutes to collect the available food pellets before being removed from the maze. On test days, rats were injected with CX1739 (0.03-1.0 mg/kg, i.p.) or vehicle immediately following the sample phase of the study. The primary dependent measure was the cumulative number of arm entries prior to entering the first, second, and third baited arm during the test phase."}, "[3]": {"test_system": "perforant path / dentate gyrus of the hippocampus (fEPSPs)", "experiment": "Effect on evoked fEPSPs in rat hippocampus (anesthetized animals, in vivo)", "set-up": "species or system Rat (Long Evans)", "details": "for Minimum Effective Dose: IP, dose range 5-20 mg/kg; for duration of the fEPSP effect: about 2 hours monitoring, CX717 at 20 mg/kg; for effect on evoked fEPSP / maximum increase in fEPSP amplitude: intraperitoneal administration", "description": "Further selection and characterization of ampakines to identify anti-ADHD drugs useful within the invention involved electrophysiological studies (to measure “electrically evoked field excitatory postsynaptic potentials” (fEPSPs) for test compounds). CX717 and CX1739 were tested for their ability to facilitate synaptic responses in vivo in anesthetized animals following peripheral administration. Stimulating and recording electrodes were inserted into the perforant path and dentate gyrus of the hippocampus, respectively. Electrically evoked field excitatory postsynaptic responses (fEPSPs) were measured before administration of ampakines, and for approximately 2 hours following intraperitoneal administration of ampakines.\nElectrically evoked field excitatory postsynaptic potentials (fEPSPs) were determined for the exemplary test ampakines CX717 and CX1739 as described. […] The response magnitude was related to the plasma levels achieved during the study. […] Both ampakines appear to produce a 25% maximum increase in fEPSP amplitude."}, "Rat (SD) [4]": {"test_system": "Rat (SD)", "experiment": "Amphetamine-stimulated locomotion and rearing in rats", "type": "in vivo", "details": "for Minimum Effective Dose: PO, dose range 1-10 mg/kg", "description": "as §1"}, "[5]": {"details": "aged rats, eight-arm maze, 0.03-10 mg/kg i.p."}}}
{"smiles": "CN(C(=O)c1ccc2nonc2c1)C1CCOCC1", "note": "[CX1739, N-Methyl-N-tetrahydro-2H-pyran-4-yl-[2,1,3]-benzoxadiazole-5-carboxamide]", "values": [{"measurement": "amphetamine-stimulated locomotion", "setting": "Mouse (CD1); 30 mg/kg ip", "result": "significant decrease"}, {"measurement": "Minimum Effective Dose", "setting": "Mouse (CD1)", "result": 30, "unit": "mg/kg"}, {"measurement": "amphetamine-stimulated locomotion, pre-treatment", "setting": "Mouse (CD1)", "result": "inhibited amphetamine-stimulated locomotion in mice in a dose-dependent manner"}, {"measurement": "preference for novel object exploration versus positive control", "setting": "Rat (Wistar); 0.03 mg/kg", "result": "comparable to that of 3 mg/kg galantamine"}, {"measurement": "Minimum Effective Dose", "setting": "Rat (Wistar)", "result": 0.03, "unit": "mg/kg"}, {"measurement": "preference for exploring the novel object", "setting": "Rat (Wistar); rat, in vivo", "result": "significant increase"}, {"measurement": "effect on LTP", "setting": "[1]; 3 mg/kg, p<0.01", "result": "statistically significant increase in LTP"}, {"measurement": "Minimum Effective Dose", "setting": "[1]", "result": 3, "unit": "mg/kg"}, {"measurement": "entries before finding the third arm with a food pellet reward", "setting": "Rat (SD) [2]; 0.3 mg/kg, 12-arm maze, p<0.05", "result": "significantly fewer entries"}, {"measurement": "Minimum Effective Dose", "setting": "Rat (SD) [2]", "result": 0.3, "unit": "mg/kg"}, {"measurement": "optimal dose (dose producing the maximal effect) in the maze assay", "setting": "Rat (SD) [2]; ip", "result": 0.3, "unit": "mg/kg"}, {"measurement": "Minimum Effective Dose", "setting": "[3]", "result": 5, "unit": "mg/kg"}, {"measurement": "duration of the fEPSP effect", "setting": "[3]", "result": "declined to baseline after two hours"}, {"measurement": "effect on evoked fEPSP", "setting": "[3]", "result": "substantial increase in EPSP amplitude"}, {"measurement": "maximum increase in fEPSP amplitude", "setting": "[3]", "result": "~25", "unit": "%"}, {"measurement": "Minimum Effective Dose", "setting": "Rat (SD) [4]", "result": 1, "unit": "mg/kg"}, {"measurement": "amphetamine-stimulated rearing behavior", "setting": "Rat (SD) [4]; rats, all doses tested", "result": "modest reduction"}]}
{"smiles": "O=C(c1ccc2nonc2c1)N1CCOCC1", "note": "[CX717, 1-(benzofurazan-5-ylcarbonyl)morpholine]", "values": [{"measurement": "Minimum Effective Dose", "setting": "Mouse (CD1)", "result": 18, "unit": "mg/kg"}, {"measurement": "amphetamine-stimulated locomotion, pre-treatment", "setting": "Mouse (CD1)", "result": "inhibited amphetamine-stimulated locomotion in mice in a dose-dependent manner"}, {"measurement": "d1 scores (discrimination index)", "setting": "Rat (Wistar); 0.3 mg/kg, compared to vehicle", "result": "significant increase"}, {"measurement": "Minimum Effective Dose", "setting": "Rat (Wistar)", "result": 0.3, "unit": "mg/kg"}, {"measurement": "enhancement of hippocampal LTP relative to baseline", "setting": "[1]; 2 mg/kg, after the tetanus, P<0.01", "result": 200, "unit": "%"}, {"measurement": "Minimum Effective Dose", "setting": "[1]", "result": 2, "unit": "mg/kg"}, {"measurement": "Minimum Effective Dose", "setting": "Rat (SD) [2]", "result": 0.3, "unit": "mg/kg"}, {"measurement": "doses with highly significant difference in performance between drug and vehicle days", "setting": "Rat (SD) [2]; Kruskal-Wallace P=0.008, Wilcoxon Signed Rank Test", "result": "≥ 0.3", "unit": "mg/kg"}, {"measurement": "number of correct choices (before making an error) in the second maze session", "setting": "Rat (SD) [2]; [5]", "result": "dose-dependent increase"}, {"measurement": "total number of errors", "setting": "Rat (SD) [2]; [5]", "result": "decrease"}, {"measurement": "Minimum Effective Dose", "setting": "[3]", "result": 5, "unit": "mg/kg"}, {"measurement": "duration of the fEPSP effect", "setting": "[3]", "result": "plateaued for the duration of monitoring"}, {"measurement": "effect on evoked fEPSP", "setting": "[3]", "result": "long-lasting increase in the evoked fEPSP in a concentration-dependent manner"}, {"measurement": "maximum increase in fEPSP amplitude", "setting": "[3]", "result": "~25", "unit": "%"}, {"measurement": "amphetamine-stimulated locomotion activity", "setting": "Rat (SD) [4]; 3 mg/kg", "result": "significant decrease"}, {"measurement": "amphetamine-stimulated rearing", "setting": "Rat (SD) [4]; 1 and 3 mg/kg", "result": "inhibits rearing"}, {"measurement": "Minimum Effective Dose", "setting": "Rat (SD) [4]", "result": 1, "unit": "mg/kg"}]}
